The source of these data is PubChem BioAssay (NCI).

Common to all, as to test: growth of human tumour cells (NCI), 48 h
Experiment [1] deals with DU-145 prostate.
The subject of experiment [2] is SNB-19 CNS.
Experiment [3] deals with IGROV1 ovarian.
The subject of experiment [4] is MDA-MB-231 breast.
For experiment [5], the system named is MDA-MB-435.
In experiment [6] the test system is UACC-257 melanoma.
Experiment [7] relates to OVCAR-3 ovarian.
Experiment [8] deals with MALME-3M melanoma.
Experiment [9] concerns RPMI-8226 leukemia.
Experiment [10] has as its system SF-539 CNS.

Molecules are shown by their SMILES.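 Values below derive from 48-hour exposures of cells grown in 96-well plates, with endpoints linearly interpolated between the two concentrations bracketing the appropriate inhibition level. Abbreviation: GI50, concentration required for 50% inhibition of growth. TGI denotes the concentration required for complete inhibition of growth.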 Some results are limits rather than exact numbers.

In the case of `C(=Nc1ccc2c(c1)Cc1ccccc1-2)c1ccccn1`, the TGI in experiment [1] is greater than 100 µM; in experiment [2], greater than 100 µM; in experiment [3], greater than 100 µM; in experiment [4], greater than 100 µM; in experiment [5], greater than 100 µM; in [6], 79.1 µM. Besides, the TGI in experiment [7] and in experiment [8] was greater than 100 µM throughout.
`Cc1ccc(CSC(N)=Nc2ccccc2)cc1C`: the TGI in experiment [1] came to 55.4 µM; in [9], 75.9 µM; in [2] it was 65.9 µM; in experiment [3] it was 57.5 µM; in experiment [4], 33.6 µM; in experiment [10] it was 53.1 µM. The TGI in experiment [5] turned out to be 30.7 µM; in experiment [6] it was 36.9 µM; in experiment [7], 44 µM; in experiment [8], 34.2 µM.
For the compound `COc1ccc(C2COc3c(ccc(O)c3C)C2)cc1OC` (stereo not drawn), the TGI was 166 µM in experiment [9]; greater than 200 µM in experiment [2]; greater than 200 µM in experiment [3]; 197 µM in experiment [10]; greater than 200 µM in experiment [6]; greater than 195 µM in [7]. Moreover, in experiment [8], the TGI is greater than 200 µM.
For the compound `Cc1nc2ccc(S(=O)(=O)Nc3nccs3)cc2c(=O)n1NS(=O)(=O)c1nccs1`, the TGI in [1], in [9], in [2], in experiment [3], in [4] and in [10] was greater than 100 µM each time. For the same compound, the TGI in experiment [5], in experiment [6], in experiment [7] and in experiment [8] was greater than 100 µM throughout.
For `N[C@H](Cc1ccc2oc3cc(=O)c4ccccc4c-3nc2c1)C(=O)O`, the TGI was 51.7 µM in experiment [1]; 83.8 µM in experiment [9]; greater than 100 µM in [2]; greater than 100 µM in experiment [3]; greater than 100 µM in experiment [4]; greater than 100 µM in [10]. Besides, the TGI was 30.3 µM in [5], greater than 100 µM in experiment [6], greater than 100 µM in [7] and 38.5 µM in experiment [8].
Regarding `CCCCC1C=Cn2c(=O)oc3c(OC(C)C)c(C)c(O)c1c32` (stereo not drawn), the TGI was 5.5 µM in experiment [1]; 11.8 µM in [9]; 13.3 µM in [2]; 10.1 µM in experiment [3]; 4.87 µM in experiment [4]; 19.2 µM in experiment [10]. In addition, the TGI stood at 3.38 µM in [5], 8.78 µM in [6], 14.8 µM in [7] and 4.1 µM in experiment [8].
As for `COC(=O)C1=C(OC)[C@H]2C#C/C=C\C#C[C@@H]3Nc4c(cc(O)c5c4C(=O)c4ccccc4C5=O)[C@]24O[C@@]34[C@H]1C`, the TGI was less than 0.01 µM in experiment [1]; 0.0188 µM in experiment [9]; 0.167 µM in experiment [3]; 0.0179 µM in experiment [4]; less than 0.01 µM in experiment [10]; 0.0448 µM in experiment [5]. In addition, the TGI in experiment [6] turned out to be 0.0363 µM; in [7], 0.113 µM; in experiment [8], 0.103 µM.
Turning to `COc1ccc2c(c1)c(-c1nc(-c3c[nH]c4ncccc34)cs1)cn2CCCCN1CCCCC1`, the GI50 is 1.73 µM in [1], 1.61 µM in experiment [4], 1.8 µM in [6] and 1.76 µM in experiment [7]. In addition, the TGI was found to be 3.22 µM in [1], 3.08 µM in experiment [4], 3.35 µM in [6] and 3.24 µM in experiment [7].
For `C[n+]1c2ccccc2c(NC(CCCN=C(N)N)C(=O)O)c2ccccc21` (stereo not drawn), the TGI in [9], in experiment [2], in experiment [3], in experiment [10], in experiment [6] and in experiment [7] was greater than 100 µM in each case. In [8], this compound yielded a TGI greater than 100 µM.
As for `CN(C)CCCNc1ccc2ncn3c4ccc(O)cc4c(=O)c1c23`, the TGI worked out at 21.2 µM in experiment [1]; 18.2 µM in experiment [9]; 20.1 µM in experiment [2]; 10.5 µM in [3]; 21.7 µM in [4]; 15.7 µM in experiment [10]. Also, the TGI in experiment [5] was 19.3 µM; in experiment [6] it was 24.5 µM; in [7], 17.6 µM; in experiment [8], 16 µM.
For the compound `COc1ccc(/C=N/n2cnc3c(c2=O)SC(=C(C#N)C#N)N3c2ccccc2)cc1`, the TGI in experiment [9], in [2], in experiment [3], in experiment [10], in experiment [6] and in [7] was greater than 100 µM in each case.
As for `C/C(=N\NC(=S)N1CCCC1)c1nc2ncccc2[nH]1`, the TGI is 13.1 µM in experiment [1]; 39.4 µM in experiment [9]; 17.1 µM in experiment [2]; greater than 100 µM in experiment [4]; 0.523 µM in experiment [10]; greater than 100 µM in experiment [5]. The TGI in experiment [6] is 10.7 µM; in experiment [7], greater than 100 µM; in experiment [8], 63.9 µM.
In the case of `CCOC(=O)c1sc2nc(SC)nc(Nc3ccc4c(c3)OCCO4)c2c1N`, the TGI in [1] was 33.5 µM; in [9], 77.1 µM; in experiment [2] it was greater than 100 µM; in [3] it was 78.6 µM; in [4] it was 25.9 µM; in experiment [10], 18.2 µM. For the same compound, the TGI in experiment [5] is 42.7 µM; in experiment [6], greater than 100 µM; in experiment [7], 26.7 µM; in experiment [8], 30.5 µM.
With `O=C1c2ccccc2OCC12OC21C=CC(Cl)=CC1` (stereo not drawn), the TGI in [1] is 38.6 µM; in experiment [9], 47.4 µM; in [2] it was 80.3 µM; in experiment [3], greater than 100 µM; in [4], 50.9 µM; in experiment [10], greater than 100 µM. Moreover, the TGI is 51.5 µM in [5], greater than 100 µM in experiment [6], 42.1 µM in experiment [7] and 44.8 µM in [8].
Turning to `CCCO[C@@H]1[C@@H](OC(C)=O)[C@@H](OC(C)=O)C(C)(C)/C=C/[C@H](C)C(=O)[C@@]2(OC(C)=O)C[C@@](C)(OC(C)=O)[C@H](OC(C)=O)[C@@H]2[C@H]2OC(=O)CC[C@@]12OC(=O)c1ccccc1`, the TGI in experiment [1], in experiment [2], in experiment [3], in experiment [4], in experiment [10] and in experiment [5] was greater than 25 µM each time. In addition, the TGI in experiment [6], in experiment [7] and in experiment [8] was greater than 25 µM each time.
For the compound `CCCC(=O)[O-].CCCC(=O)[O-].NCCN.NCCN.[Co+3].[O-][Cl+3]([O-])([O-])[O-]`, the TGI in experiment [9], in experiment [2], in experiment [3], in [10], in experiment [6] and in [7] was greater than 100 µM throughout. The compound also yielded a TGI in experiment [8] greater than 100 µM.
On to `CN(C)CCNC(=O)c1cccc2[nH]c(-c3ccccn3)nc12`, for which the TGI was 62.3 µM in [9]; greater than 100 µM in experiment [2]; greater than 100 µM in [3]; greater than 100 µM in experiment [10]; greater than 93.6 µM in experiment [6]; greater than 100 µM in [7]. Also, the TGI in [8] is greater than 65.4 µM.
On to `CCCn1cnc2c(SCc3ccc(Cl)cc3)nc(N)nc21`, for which the TGI in experiment [1] was greater than 100 µM; in [9] it was 40.2 µM; in experiment [2], greater than 100 µM; in experiment [3], greater than 100 µM; in [4], 60.1 µM; in [5], 57.8 µM. Moreover, the TGI in [6] is 41.8 µM; in [7], 41.3 µM; in experiment [8], 65.8 µM.
Regarding `C=CCCC1(C)CCCNC1=S` (stereo not drawn), the TGI in experiment [9], in experiment [2], in experiment [3], in experiment [10], in experiment [6] and in experiment [7] was greater than 100 µM each time. Besides, the TGI in experiment [8] was greater than 100 µM.
With `O=C(N[C@@H](Cc1coc2ccccc12)B(O)O)[C@@H]1C[C@H]2CC[C@@H]1O2`, the GI50 was 7.5 µM in experiment [1]; 0.45 µM in experiment [9]; 4.98 µM in experiment [2]; 16.1 µM in experiment [3]; 11.7 µM in experiment [4]; 1.72 µM in [10]. Also, the GI50 is 1.76 µM in experiment [5], 6.28 µM in experiment [6], 4.04 µM in experiment [7] and 3.07 µM in experiment [8]. The TGI in experiment [1] was greater than 100 µM; in [9], 5.2 µM; in [2], greater than 100 µM; in [3] it was greater than 100 µM; in experiment [4], greater than 100 µM; in experiment [10] it was 6.12 µM. The TGI was 4.04 µM in [5], greater than 100 µM in experiment [6], greater than 100 µM in [7] and 20.8 µM in experiment [8].
